Here are results for 27 compounds from patent US9206167B2, “Piperazine-substituted benzothiophenes for treatment of mental disorders” (Otsuka Pharmaceutical Co., Ltd., priority 2005, dated 2015).

The target in one assay is Serotonin (5-HT) uptake (Rattus norvegicus (Rat), UniProt P31652). The assay can be described thus: Serotonin (5-HT) uptake inhibitory activity by rat brain synaptosome. The class given is biochemical. As to conditions: test compound 300 nM, rat frontal cortex synaptosome; read-out: Serotonin uptake inhibitory ratio (%) (300 nM). How it is done:
Measurement of Serotonin (5-HT) Uptake Inhibitory Activity of a Test Compound by Rat Brain Synaptosome
Wistar male rats were decapitated, the brain was retrieved and frontal cortex was dissected out, and it was homogenized in 0.32 M sucrose solution of a weight 20 times of the weight of the tissue using a Potter type homogenizer. The homogenate was centrifuged at 4° C., 1,000×g for 10 minutes, the obtained supernatant was further centrifuged at 4° C., 20,000×g for 20 minutes, and the pellet was suspended in an incubation buffer (20 mM Hepes buffer (pH 7.4) containing 10 mM glucose, 145 mM sodium chloride, 4.5 mM potassium Chloride, 1.2 mM magnesium chloride, 1.5 mM calcium chloride), which was used as crude synaptosome fraction.
5-HT uptake reaction was performed in a volume of 200 μl using a 96-well round bottom plate and pargyline (final concentration 10 μM) and sodium ascorbate (final concentration 0.2 mg/ml) were contained in the incubation buffer upon reaction and used.
Incubation buffer (total counting), non-labeled 5-HT (final concentration 10 μM, non-specific counting) and the diluted test compound (final concentration 300 nM) were added to each well. One-tenth quantity of the final volume of the synaptosome fraction was added and after preincubated at 37° C. for 10 minutes, tritium labeled 5-HT solution (final concentration 8 nM) was added and uptake reaction was started at 37° C. The uptake time was 10 minutes and the reaction was terminated by vacuum filtration through a 96-well fiber glass filter paper plate, and after the filter paper was washed with cold normal saline, it was dried enough and Microscint0 (Perkin-Elmer) was added to the filter and remaining radioactivity on the filter was measured.

For a further assay, the target named is Dopamine D2 receptor (Rattus norvegicus (Rat), UniProt P61169). Briefly: Dopamine D2 receptor binding assay ([3H]-raclopride, rat corpus striatum membrane). As to conditions: Ki from IC50 by Cheng-Prussoff formula. The protocol: Pharmacological Test 1 1) Dopamine D2 Receptor Binding Assay
Wistar male rats were decapitated, the brain was retrieved immediately and corpus striatum was taken out. It was homogenized in 50 mM tris(hydroxymethyl)aminomethane (Tris)-hydrochloric acid buffer (pH 7.4) of a volume 50 times of the weight of the tissue using a homogenizer with a high-speed rotating blade, and centrifuged at 4° C., 48,000×g for 10 minutes. The obtained precipitate was suspended again in the above-described buffer of a volume 50 times of the weight of the tissue and after incubated at 37° C. for 10 minutes, centrifuged in the above-described condition. The obtained precipitate was suspended in 50 mM (Tris)-hydrochloric acid buffer (containing 120 mM NaCl, 5 mM KCl, 2 mM CaCl2, 1 mM MgCl2, pH 7.4) of a volume 25 times of the weight of the tissue and preserved by freezing at −85° C. till it was used for binding assay as a membrane specimen.
The binding assay was performed using 40 μl of the membrane specimen, 20 μl of [^3H]-raclopride (final concentration 1 to 2 nM), 20 μl of a test drug and 50 mM Tris-hydrochloric acid buffer (containing 120 mM NaCl, 5 mM KCl, 2 mM CaCl2, 1 mM MgCl2, pH 7.4) so that the total amount was 200 μl (final dimethylsulfoxide concentration 1%). The reaction was performed at room temperature for 1 hour and terminated by conducting suction filtration with a cell harvester on a glass fiber filter plate. The filter plate made of glass fiber was washed with 50 mM Tris-hydrochloric acid buffer (pH 7.4), and after dried, a microplate liquid scintillation cocktail was added and the radioactivity was measured with a microplate scintillation counter. Radioactivity in the presence of 10 μM (+)-butaclamol hydrochloride was assumed as nonspecific binding.
(§1) IC50 value was calculated from concentration-dependent reaction using a non-linear analysis program. Ki value was calculated from IC50 value using Cheng-Prussoff formula.

Assay [1] addresses Serotonin 5-HT2A receptor (Rattus norvegicus (Rat), UniProt P14842). Briefly: Serotonin 5-HT2A receptor binding assay ([3H]-Ketanserin, rat frontal cortex membrane). As to conditions: Ki from IC50 by Cheng-Prussoff formula. The protocol: 2) Serotonin 5-HT2A Receptor Binding Assay
The assay was performed according to the method by Leysen J E et al. (Leysen J E, Niemegeers C J E, Van Nueten J M and Laduron P M. [3H] Ketanserin (R 41 468), a selective 3H-ligand for serotonin 2 receptor binding sites. Mol. Pharmacol., 1982, 21: 301-314).
Wistar male rats were decapitated, the brain was retrieved immediately and frontal cortex was taken out. It was homogenized in 0.25 M sucrose of a volume 10 times of the weight of the tissue using a Teflon glass homogenizer, and centrifuged at 4° C., 1,000×g for 10 minutes. The obtained supernatant was transferred to another centrifuge tube and suspended in 0.25 M sucrose of a volume 5 times of the weight of the tissue and the precipitate was centrifuged in the above-described condition. The obtained supernatant was combined with the supernatant obtained above and adjusted to a volume 40 times of the weight of the tissue with 50 mM Tris-hydrochloric acid buffer (pH 7.4), and centrifuged at 4° C., 35,000×g for 10 minutes. The obtained precipitate was suspended again in the above-described buffer of a volume 40 times of the weight of the tissue and centrifuged in the above-described condition. The obtained precipitate was suspended in the above-described buffer of a volume 20 times of the weight of the tissue and preserved by freezing at −85° C. till it was used for binding assay as a membrane specimen.
The binding assay was performed using 40 μl of the membrane specimen, 20 μl of [^3H]-Ketanserin (final concentration 1 to 3 nM), 20 μl of a test drug and 50 mM Tris-hydrochloric acid buffer (pH 7.4) so that the total amount was 200 μl (final dimethylsulfoxide concentration 1%). The reaction was performed at 37° C. for 20 minutes and terminated by conducting suction filtration with a cell harvester on a glass fiber filter plate.
The filter plate made of glass fiber was washed with 50 mM Tris-hydrochloric acid buffer (pH 7.4), and after dried, a microplate liquid scintillation cocktail was added and the radioactivity was measured with a microplate scintillation counter. Radioactivity in the presence of 10 μM spiperone was assumed as nonspecific binding.
as §1

Counter-ions that a name gives are not always drawn.

Sequence of Dopamine D2 receptor (P61169 whole entry): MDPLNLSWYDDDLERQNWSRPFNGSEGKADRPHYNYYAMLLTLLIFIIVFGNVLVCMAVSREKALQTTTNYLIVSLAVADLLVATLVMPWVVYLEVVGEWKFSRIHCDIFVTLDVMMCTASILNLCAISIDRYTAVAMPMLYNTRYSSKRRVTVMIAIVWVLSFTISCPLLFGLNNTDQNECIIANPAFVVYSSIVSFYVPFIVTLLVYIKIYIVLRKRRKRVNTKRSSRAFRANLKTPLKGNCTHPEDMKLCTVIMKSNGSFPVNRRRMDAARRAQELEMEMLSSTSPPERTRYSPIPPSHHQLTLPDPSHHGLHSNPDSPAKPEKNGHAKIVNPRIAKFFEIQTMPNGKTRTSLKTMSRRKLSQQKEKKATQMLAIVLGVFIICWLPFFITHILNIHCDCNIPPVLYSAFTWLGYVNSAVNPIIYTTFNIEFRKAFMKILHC
Sequence of Serotonin 5-HT2A receptor (P14842 whole entry): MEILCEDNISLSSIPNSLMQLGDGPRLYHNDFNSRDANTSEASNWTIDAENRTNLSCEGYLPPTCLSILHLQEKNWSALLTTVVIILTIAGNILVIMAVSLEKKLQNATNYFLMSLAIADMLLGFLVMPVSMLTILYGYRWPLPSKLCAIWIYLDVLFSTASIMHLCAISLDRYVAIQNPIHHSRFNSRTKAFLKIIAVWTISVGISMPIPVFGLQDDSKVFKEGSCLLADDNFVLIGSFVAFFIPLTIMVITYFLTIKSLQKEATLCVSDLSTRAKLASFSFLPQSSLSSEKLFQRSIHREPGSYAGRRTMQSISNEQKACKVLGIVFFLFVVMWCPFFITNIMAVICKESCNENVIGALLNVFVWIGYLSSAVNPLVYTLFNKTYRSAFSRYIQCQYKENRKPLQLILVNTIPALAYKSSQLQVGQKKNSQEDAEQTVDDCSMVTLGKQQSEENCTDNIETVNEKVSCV
Sequence of Serotonin (5-HT) uptake (P31652 whole entry): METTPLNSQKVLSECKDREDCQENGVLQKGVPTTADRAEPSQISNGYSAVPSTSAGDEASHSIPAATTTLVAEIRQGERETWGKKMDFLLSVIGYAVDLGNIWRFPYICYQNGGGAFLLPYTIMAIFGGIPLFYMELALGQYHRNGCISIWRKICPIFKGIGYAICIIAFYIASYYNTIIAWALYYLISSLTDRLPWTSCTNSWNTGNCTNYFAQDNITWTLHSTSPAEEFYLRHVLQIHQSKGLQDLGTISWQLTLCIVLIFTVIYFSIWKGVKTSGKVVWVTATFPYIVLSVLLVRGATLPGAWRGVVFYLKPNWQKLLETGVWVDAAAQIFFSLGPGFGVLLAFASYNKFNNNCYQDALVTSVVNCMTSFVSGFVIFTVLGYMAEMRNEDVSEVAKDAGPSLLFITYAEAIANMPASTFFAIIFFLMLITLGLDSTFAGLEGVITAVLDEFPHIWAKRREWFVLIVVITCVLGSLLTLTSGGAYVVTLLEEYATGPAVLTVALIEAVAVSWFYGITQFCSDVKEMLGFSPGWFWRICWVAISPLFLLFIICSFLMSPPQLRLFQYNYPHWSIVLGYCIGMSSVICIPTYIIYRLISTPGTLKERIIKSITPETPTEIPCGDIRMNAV

By Ki is commonly meant a dissociation constant, usually derived from enzyme kinetics or from competition with a known ligand. Turning to `O=c1ccc2ccc(OCCCCN3CCN(c4cccc5sccc45)CC3)cc2[nH]1` [Example 1, 7-[4-(4-benzo[b]thiophen-4-yl-piperazin-1-yl)butoxy]-1H-quinolin-2-one], the inhibition at 0.3 µM on Serotonin (5-HT) uptake is 92.4%. Also, the figures for the Ki (on Dopamine D2 receptor; in assay [1]) were 0.2 nM and 2.3 nM, respectively.
For the compound `O=c1[nH]c2ccccc2cc1OCCN1CCN(c2cccc3sccc23)CC1` [Example 2, 3-[2-(4-benzo[b]thiophen-4-yl-piperazin-1-yl)ethoxy]-1H-quinolin-2-one], at Serotonin (5-HT) uptake, the inhibition at 0.3 µM worked out at 78.8%. In addition, the Ki in assay [1] came to 1.5 nM.
Turning to `Cc1cc(=O)[nH]c2cc(OCCCN3CCN(c4cccc5sccc45)CC3)ccc12` [Example 3, 7-[3-(4-benzo[b]thiophen-4-yl-piperazin-1-yl)propoxy]-4-methyl-1H-quinolin-2-one], the inhibition at 0.3 µM on Serotonin (5-HT) uptake worked out at 84.8%. Further, the inhibitory constant (Ki) on Dopamine D2 receptor was 0.5 nM; in assay [1] it was 2.3 nM.
As for `Cc1cc2ccc(OCCCCN3CCN(c4cccc5sccc45)CC3)cc2[nH]c1=O` [Example 6, 7-[4-(4-benzo[b]thiophen-4-yl-piperazin-1-yl)butoxy]-3-methyl-1H-quinolin-2-one], the inhibition at 0.3 µM at Serotonin (5-HT) uptake stood at 91.3%. The same compound displayed a Ki at Dopamine D2 receptor of 0.8 nM.
As to `O=C1CCc2ccc(OCCCCN3CCN(c4cccc5sccc45)CC3)cc2N1` [Example 11, 7-[4-(4-benzo[b]thiophen-4-yl-piperazin-1-yl)butoxy]-3,4-dihydro-1H-quinolin-2-one], the inhibitory constant (Ki) in assay [1] was 5.7 nM.
For `O=C1CCc2ccc(OCCCCN3CCN(c4cccc5sccc45)CC3)cc2N1` [Example 12, 7-[4-(4-benzo[b]thiophen-4-yl-piperazin-1-yl)butoxy]-3,4-dihydro-1H-quinolin-2-one hydrochloride], the inhibition constant (Ki) in assay [1] (hydrochloride) came out at 2.1 nM.
`O=C1CCc2ccc(OC/C=C\CN3CCN(c4cccc5sccc45)CC3)cc2N1` [Example 13, 7-[4-(4-benzo[b]thiophen-4-yl-piperazin-1-yl)-(Z)-2-butenyloxy]-3,4-dihydro-1H-quinolin-2-one]: the inhibition at 0.3 µM at Serotonin (5-HT) uptake was 77%. In addition, the Ki at Dopamine D2 receptor stood at 2.4 nM.
In the case of `O=C1CCc2ccccc2N1CCCCCN1CCN(c2cccc3sccc23)CC1` [Example 22, 1-[5-(4-benzo[b]thiophen-4-yl-piperazin-1-yl)pentyl]-3,4-dihydro-1H-quinolin-2-one hydrochloride], on Dopamine D2 receptor, the inhibitory constant (Ki) was determined as 4 nM.
As for `O=C1NCCc2cc(OCCCN3CCN(c4cccc5sccc45)CC3)ccc21` [Example 25, 6-[3-(4-benzo[b]thiophen-4-yl-piperazin-1-yl)propoxy]-3,4-dihydro-2H-isoquinolin-1-one], the inhibition at 0.3 µM at Serotonin (5-HT) uptake was 91.9%. In assay [1], the Ki turned out to be 4.6 nM.
For the compound `O=C1NCCc2ccc(OCCCN3CCN(c4cccc5sccc45)CC3)cc21` [Example 28, 7-[3-(4-benzo[b]thiophen-4-yl-piperazin-1-yl)propoxy]-3,4-dihydro-2H-isoquinolin-1-one], at Dopamine D2 receptor, the Ki is 1.2 nM. That is a single-digit nanomolar value.
The compound `CCN1CCc2ccc(OCCCN3CCN(c4cccc5sccc45)CC3)cc2C1=O` [Example 31, 7-[3-(4-benzo[b]thiophen-4-yl-piperazin-1-yl)propoxy]-2-ethyl-3,4-dihydro-2H-isoquinolin-1-one dihydrochloride] returned an inhibitory constant (Ki) on Dopamine D2 receptor of 1.4 nM. The Ki values of the last two compounds are within 1.5-fold of each other.
The same measure, in the same setting: for `CN1CCc2ccc(OCCCCN3CCN(c4cccc5sccc45)CC3)cc2C1=O` [Example 32, 7-[4-(4-benzo[b]thiophen-4-yl-piperazin-1-yl)butoxy]-2-methyl-3,4-dihydro-2H-isoquinolin-1-one hydrochloride] the value was 1.5 nM; for `O=c1[nH]ccc2ccc(OCCCN3CCN(c4cccc5sccc45)CC3)cc12` [Example 35, 7-[3-(4-benzo[b]thiophen-4-yl-piperazin-1-yl)propoxy]-2H-isoquinolin-1-one], 1.6 nM.
Compound `Cn1ccc2ccc(OCCCN3CCN(c4cccc5sccc45)CC3)cc2c1=O` [Example 36, 7-[3-(4-benzo[b]thiophen-4-yl-piperazin-1-yl)propoxy]-2-methyl-2H-isoquinolin-1-one hydrochloride] yielded a Ki in assay [1] of 2.1 nM. That is a single-digit nanomolar value.
Take `COc1ccc2ccn(CCCCN3CCN(c4cccc5sccc45)CC3)c(=O)c2c1` [Example 38, 2-[4-(4-benzo[b]thiophen-4-yl-piperazin-1-yl)butyl]-7-methoxy-2H-isoquinolin-1-one hydrochloride]: the Ki in assay [1] stood at 7.3 nM.
On Dopamine D2 receptor, `O=c1c2cc(O)ccc2ccn1CCCCN1CCN(c2cccc3sccc23)CC1` [Example 39, 2-[4-(4-benzo[b]thiophen-4-yl-piperazin-1-yl)butyl]-7-hydroxy-2H-isoquinolin-1-one hydrobromide] gave an inhibition constant (Ki) of 1.2 nM.
As to `O=C1CCc2cc(OCCCN3CCN(c4cccc5sccc45)CC3)cc(F)c2N1` [Example 116], the Ki on Dopamine D2 receptor is 4.5 nM; in assay [1], 4.2 nM.
For `Cc1cccc2cc(OCCCN3CCN(c4cccc5sccc45)CC3)c(=O)[nH]c12` [Example 117], at Dopamine D2 receptor, the inhibitory constant (Ki) turned out to be 4.7 nM.
Turning to `O=c1ccc2cc(OCCCN3CCN(c4cccc5sccc45)CC3)cc(F)c2[nH]1` [Example 118], the results for the Ki (at Dopamine D2 receptor; in assay [1]) were 3.5 nM and 3.4 nM, respectively.
As for `O=C1CCc2c(cccc2OCCCN2CCN(c3cccc4sccc34)CC2)N1` [Example 122], the Ki at Dopamine D2 receptor came to 3.3 nM; in assay [1], 2.9 nM.
At Dopamine D2 receptor, `O=C1CCc2cc(CO)c(OCCCN3CCN(c4cccc5sccc45)CC3)cc2N1` [Example 139] had a Ki of 0.2 nM.
`CC(=O)Nc1ccc(OCCCN2CCN(c3cccc4sccc34)CC2)c2c1NC(=O)CC2` [Example 155]: the inhibitory constant (Ki) at Dopamine D2 receptor was 2.3 nM; in assay [1] it was 3 nM.
For the compound `O=c1ccc2cc(OCCCCN3CCN(c4cccc5sccc45)CC3)cc(F)c2[nH]1` [Example 184], the inhibition constant Ki is 2.6 nM at Dopamine D2 receptor and 4.3 nM in assay [1].
Turning to `Cc1cc(=O)[nH]c2ccc(OCCCCN3CCN(c4cccc5sccc45)CC3)cc12` [Example 185], the values for the inhibition constant (Ki) (on Dopamine D2 receptor; in assay [1]) were 2.7 nM and 5 nM, respectively.
`O=C1CCc2cccc(OCCCCN3CCN(c4cccc5sccc45)CC3)c2N1` [Example 186]: the Ki came to 2.3 nM at Dopamine D2 receptor and 8.8 nM in assay [1].
As for `O=c1ccc2cccc(OCCCCN3CCN(c4cccc5sccc45)CC3)c2[nH]1` [Example 188], the Ki at Dopamine D2 receptor worked out at 1.6 nM; in assay [1] it was 6.3 nM.
For the compound `O=C1CCc2c(O)ccc(OCCCN3CCN(c4cccc5sccc45)CC3)c2N1` [Example 190], the Ki at Dopamine D2 receptor was determined as 0.8 nM. This counts as sub-nanomolar.
